# Results: patent publication US8471005B2 (Cephalon, Inc., priority 2008, dated 2013)
# Read-outs that look alike come from different tables or passages of the source.
# How the values were obtained:
# ALK = target: T1, ALK (Homo sapiens, UniProt Q9UM73); test: ALK Kinase Assay (ELISA/TRF, PLC-γ substrate); type: biochemical; conditions: read-out: ALK Potency
# T1 construct: host or cells: baculovirus expression system
# In short: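 Read-out is time-resolved fluorescence from a Eu-N1-labeled PT66 antibody that binds phosphorylated PLC-γ, the substrate coated at 10 μg/mL in TBS. ALK at 30 ng/ml starts the reaction, which runs 15 minutes at 37° C.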
# JAK2 = target: T2, JAK2 (Homo sapiens, UniProt O60674); test: Recombinant Human JAK2 Kinase Assay (TRF); type: biochemical; conditions: read-out: JAK2 Potency
# T2 construct: host or cells: baculovirus expression system
# In short: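 Europium-labelled PY100 antibody reported tyrosine phosphorylation of a Neutravidin-captured biotinyl 15-mer peptide by JAK2 (baculovirus-expressed, 15 ng/ml). Conditions: 20 mM HEPES pH 7.2, 0.2 μM ATP, 1 mM MnCl2, 0.1% BSA, DMSO 2.5% final, 20 min at room temperature.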
# [1] = ALK kinase inhibition, 1 μM ATP
# [2] = JAK2 kinase inhibition, 0.2 μM ATP
# T2 sequence (O60674 whole entry): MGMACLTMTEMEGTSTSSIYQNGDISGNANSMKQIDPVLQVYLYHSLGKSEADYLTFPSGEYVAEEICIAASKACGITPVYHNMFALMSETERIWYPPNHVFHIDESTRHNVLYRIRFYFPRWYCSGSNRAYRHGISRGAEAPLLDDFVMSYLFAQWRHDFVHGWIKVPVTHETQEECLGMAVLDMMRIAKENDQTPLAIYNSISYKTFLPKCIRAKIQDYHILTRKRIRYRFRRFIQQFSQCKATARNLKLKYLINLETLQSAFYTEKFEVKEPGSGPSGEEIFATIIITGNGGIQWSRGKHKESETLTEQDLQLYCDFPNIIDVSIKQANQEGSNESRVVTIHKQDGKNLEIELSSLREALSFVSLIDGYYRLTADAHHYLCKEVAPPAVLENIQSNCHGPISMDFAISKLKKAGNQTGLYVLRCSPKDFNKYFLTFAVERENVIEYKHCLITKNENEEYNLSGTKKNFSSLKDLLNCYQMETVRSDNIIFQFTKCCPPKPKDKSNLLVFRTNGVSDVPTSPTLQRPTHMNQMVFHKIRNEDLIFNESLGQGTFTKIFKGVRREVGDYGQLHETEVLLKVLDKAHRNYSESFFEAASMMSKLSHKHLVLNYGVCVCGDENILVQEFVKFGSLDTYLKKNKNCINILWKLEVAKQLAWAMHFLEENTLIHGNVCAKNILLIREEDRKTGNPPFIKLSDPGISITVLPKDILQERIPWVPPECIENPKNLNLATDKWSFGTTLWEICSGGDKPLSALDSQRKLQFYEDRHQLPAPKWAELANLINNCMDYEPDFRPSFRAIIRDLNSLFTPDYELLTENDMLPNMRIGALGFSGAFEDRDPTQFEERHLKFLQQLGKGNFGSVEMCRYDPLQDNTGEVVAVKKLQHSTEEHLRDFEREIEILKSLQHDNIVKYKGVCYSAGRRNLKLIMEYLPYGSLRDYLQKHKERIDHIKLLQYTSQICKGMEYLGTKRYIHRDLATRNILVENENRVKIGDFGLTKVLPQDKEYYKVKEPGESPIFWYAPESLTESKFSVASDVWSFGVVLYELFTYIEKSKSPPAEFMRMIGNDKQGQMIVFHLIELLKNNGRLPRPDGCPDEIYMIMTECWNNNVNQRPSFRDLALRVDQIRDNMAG
# T1 sequence (Q9UM73 19-1620): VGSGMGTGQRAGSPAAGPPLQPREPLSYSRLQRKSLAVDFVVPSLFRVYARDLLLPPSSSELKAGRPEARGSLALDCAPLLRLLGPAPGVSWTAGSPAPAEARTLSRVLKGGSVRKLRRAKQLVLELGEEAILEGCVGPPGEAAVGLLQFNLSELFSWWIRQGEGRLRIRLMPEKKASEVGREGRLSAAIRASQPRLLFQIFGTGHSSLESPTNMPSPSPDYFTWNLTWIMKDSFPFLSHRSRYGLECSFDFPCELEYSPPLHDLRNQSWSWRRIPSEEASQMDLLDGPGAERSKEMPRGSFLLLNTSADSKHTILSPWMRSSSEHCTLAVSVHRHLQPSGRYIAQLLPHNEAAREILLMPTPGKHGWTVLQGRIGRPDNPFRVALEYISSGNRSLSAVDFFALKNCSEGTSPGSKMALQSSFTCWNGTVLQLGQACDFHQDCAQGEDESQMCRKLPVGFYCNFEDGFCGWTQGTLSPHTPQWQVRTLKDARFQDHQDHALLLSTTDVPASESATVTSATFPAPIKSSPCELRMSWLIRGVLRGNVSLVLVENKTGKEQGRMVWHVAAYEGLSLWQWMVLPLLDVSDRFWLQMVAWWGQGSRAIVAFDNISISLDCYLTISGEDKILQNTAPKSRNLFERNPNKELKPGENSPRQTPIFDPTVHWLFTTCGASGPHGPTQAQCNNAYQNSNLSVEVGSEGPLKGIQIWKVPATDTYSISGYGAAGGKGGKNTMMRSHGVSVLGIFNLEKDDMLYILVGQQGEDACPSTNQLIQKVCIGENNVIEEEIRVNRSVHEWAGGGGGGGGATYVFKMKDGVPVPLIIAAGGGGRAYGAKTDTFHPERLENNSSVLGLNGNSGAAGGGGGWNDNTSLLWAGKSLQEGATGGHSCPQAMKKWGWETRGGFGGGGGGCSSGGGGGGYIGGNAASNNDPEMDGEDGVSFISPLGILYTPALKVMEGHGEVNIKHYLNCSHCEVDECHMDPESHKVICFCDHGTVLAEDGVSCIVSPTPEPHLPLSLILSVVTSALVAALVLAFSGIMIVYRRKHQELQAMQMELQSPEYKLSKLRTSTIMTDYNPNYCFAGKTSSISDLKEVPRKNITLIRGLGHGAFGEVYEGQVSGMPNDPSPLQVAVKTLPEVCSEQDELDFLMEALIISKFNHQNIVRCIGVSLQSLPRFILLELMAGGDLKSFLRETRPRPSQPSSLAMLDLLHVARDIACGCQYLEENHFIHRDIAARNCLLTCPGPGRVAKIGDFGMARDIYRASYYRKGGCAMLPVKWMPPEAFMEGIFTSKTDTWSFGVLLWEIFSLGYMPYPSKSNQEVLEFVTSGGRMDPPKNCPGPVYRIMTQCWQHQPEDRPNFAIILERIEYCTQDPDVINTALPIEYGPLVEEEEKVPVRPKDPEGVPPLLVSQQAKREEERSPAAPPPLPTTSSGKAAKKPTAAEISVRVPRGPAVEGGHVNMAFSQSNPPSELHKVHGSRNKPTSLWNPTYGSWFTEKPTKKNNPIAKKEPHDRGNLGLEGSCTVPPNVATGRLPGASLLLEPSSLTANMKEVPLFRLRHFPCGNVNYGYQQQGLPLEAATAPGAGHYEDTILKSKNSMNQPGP
SMILES,IC50 (ALK; [1]),IC50 (JAK2; [2]),IC50 (ALK; ALK Kinase Inhibition),IC50 (JAK2; JAK2 Kinase Inhibition)
"CS(=O)(=O)c1cccc(-c2ccc3cnc(Nc4ccc(C5CN(CC(N)=O)C5)cc4)nn23)c1 [Example 578, 2-(3-{4-[7-(3-Methanesulfonyl-phenyl)-pyrrolo[2,1-f][1,2,4]triazin-2-ylamino]-phenyl}-azetidin-1-yl)-acetamide]",100 to 1000 nM,< 100 nM,–,–
"CN1CCN(c2ccc(Nc3ncc4ccc(-c5cccc(C(=O)OC(C)(C)C)c5)n4n3)cc2)CC1 [Example 1143, 3-{2-[4-(4-Methyl-piperazin-1-yl)-phenylamino]-pyrrolo[2,1-f][1,2,4]triazin-7-yl}-benzoic acid tert-butyl ester]",100 to 1000 nM,< 100 nM,–,–
"COc1ccccc1-c1ccc2cnc(Nc3ccc(N4CCC(C(=O)N5CCN(C)CC5)CC4)cc3)nn12 [Example 444, (1-{4-[7-(2-Methoxy-phenyl)-pyrrolo[2,1-f][1,2,4]triazin-2-ylamino]-phenyl}-piperidin-4-yl)-(4-methyl-piperazin-1-yl)-methanone]",–,–,< 100 nM,< 100 nM
"CN1CCN(c2ccc(Nc3ncc4ccc(C5=CCN(C(=O)OC(C)(C)C)CC5)n4n3)cc2)CC1 [Example 1135, 4-{2-[4-(4-Methyl-piperazin-1-yl)-phenylamino]-pyrrolo[2,1-f][1,2,4]triazin-7-yl}-3,6-dihydro-2H-pyridine-1-carboxylic acid tert-butyl ester]",100 to 1000 nM,< 100 nM,–,–
"COc1cc(N2CCC(N3CCCN(C)CC3)CC2)ccc1Nc1ncc2ccc(-c3ccccc3OC)n2n1 [Example 781, {2-Methoxy-4-[4-(4-methyl-[1,4]diazepan-1-yl)-piperidin-1-yl]-phenyl}-[7-(2-methoxy-phenyl)-pyrrolo[2,1-f][1,2,4]triazin-2-yl]-amine]",< 100 nM,< 100 nM,–,–
"COc1cc(N2CCC(N3CCOCC3)CC2)ccc1Nc1ncc2ccc(-c3ccccc3C#N)n2n1 [Example 511, 2-{2-[2-Methoxy-4-(4-morpholin-4-yl-piperidin-1-yl)-phenylamino]-pyrrolo[2,1-f][1,2,4]triazin-7-yl}-benzonitrile]",< 100 nM,< 100 nM,–,–
"COc1cc(N2CCCN(C3CCN(C)CC3)CC2)ccc1Nc1ncc2ccc(-c3ccccc3N(C)S(C)(=O)=O)n2n1 [Example 790, N-[2-(2-{2-Methoxy-4-[4-(1-methyl-piperidin-4-yl)-[1,4]diazepan-1-yl]-phenylamino}-pyrrolo[2,1-f][1,2,4]triazin-7-yl)-phenyl]-N-methyl-methanesulfonamide]",< 100 nM,100 to 1000 nM,–,–
"COc1ccccc1-c1ccc2cnc(Nc3ccc4c(c3OC)CN(C3CCN(C)CC3)C4)nn12 [Example 853, [4-Methoxy-2-(1-methyl-piperidin-4-yl)-2,3-dihydro-1H-isoindol-5-yl]-[7-(2-methoxy-phenyl)-pyrrolo[2,1-f][1,2,4]triazin-2-yl]-amine]",< 100 nM,100 to 1000 nM,–,–
"COc1cc2c(cc1Nc1ncc3ccc(-c4cccc5c4OCC5)n3n1)CCN(CCO)CC2 [Example 704, 2-{7-[7-(2,3-Dihydro-benzofuran-7-yl)-pyrrolo[2,1-f][1,2,4]triazin-2-ylamino]-8-methoxy-1,2,4,5-tetrahydro-3-benzazepin-3-yl}-ethanol]",< 100 nM,< 100 nM,–,–
"Cc1nc2ccc(Nc3ncc4ccc(-c5cccc(S(=O)(=O)NC(C)(C)C)c5)n4n3)cc2s1 [Example 572, N-tert-Butyl-3-[2-(2-methyl-benzothiazol-6-ylamino)-pyrrolo[2,1-f][1,2,4]triazin-7-yl]-benzenesulfonamide]",> 10000 nM,< 100 nM,–,–
"COc1ccccc1-c1ccc2cnc(Nc3ccc(N4CCC(N5CCOCC5)CC4)cc3)nn12 [Example 334, [7-(2-Methoxy-phenyl)-pyrrolo[2,1-f][1,2,4]triazin-2-yl]-[4-(4-morpholin-4-yl-piperidin-1-yl)-phenyl]-amine]",–,–,< 100 nM,< 100 nM
"CN1CCN(c2ccc(Nc3ncc4ccc(-c5ccc(CN6CCS(=O)(=O)CC6)cc5)n4n3)cc2)CC1 [Example 1031, {7-[4-(1,1-Dioxo-1$1(6)-thiomorpholin-4-ylmethyl)-phenyl]-pyrrolo[2,1-f][1,2,4]triazin-2-yl}-[4-(4-methyl-piperazin-1-yl)-phenyl]-amine]",< 100 nM,< 100 nM,–,–
"Cc1nc(-c2ccc3cnc(Nc4ccc(N5CCN(C)CC5)cc4)nn23)cn1C [Example 1042, [7-(1,2-Dimethyl-1H-imidazol-4-yl)-pyrrolo[2,1-f][1,2,4]triazin-2-yl]-[4-(4-methyl-piperazin-1-yl)-phenyl]-amine]",100 to 1000 nM,< 100 nM,–,–
"COc1cc(C2(NC(=O)C(F)(F)F)CCC2)ccc1Nc1ncc2ccc(-c3ccccc3N(C)S(C)(=O)=O)n2n1 [Example 1254, 2,2,2-Trifluoro-N-[1-(4-{7-[2-(methanesulfonyl-methyl-amino)-phenyl]-pyrrolo[2,1-f][1,2,4]triazin-2-ylamino}-3-methoxy-phenyl)-cyclobutyl]-acetamide]",100 to 1000 nM,1000 to 10000 nM,–,–

# Second part, the compound after the results:
IC50 (ALK; [1]),IC50 (JAK2; [2]),IC50 (ALK; ALK Kinase Inhibition),IC50 (JAK2; JAK2 Kinase Inhibition),SMILES
100 to 1000 nM,< 100 nM,–,–,"CN1CCN(c2ccc(Nc3ncc4ccc(-c5ccc(S(C)(=O)=O)cc5)n4n3)cn2)CC1 [Example 1110, [7-(4-Methanesulfonyl-phenyl)-pyrrolo[2,1-f][1,2,4]triazin-2-yl]-[6-(4-methyl-piperazin-1-yl)-pyridin-3-yl]-amine]"
100 to 1000 nM,< 100 nM,–,–,"Cn1cc(-c2ccc3cnc(Nc4ccc(C5CN(CC(N)=O)C5)cc4)nn23)cn1 [Example 585, 2-(3-{4-[7-(1-Methyl-1H-pyrazol-4-yl)-pyrrolo[2,1-f][1,2,4]triazin-2-ylamino]-phenyl}-azetidin-1-yl)-acetamide]"
–,–,100 to 1000 nM,< 100 nM,"c1cncc(-c2ccc3cnc(Nc4ccc(N5CCC(N6CCOCC6)CC5)cc4)nn23)c1 [Example 337, [4-(4-Morpholin-4-yl-piperidin-1-yl)-phenyl]-(7-pyridin-3-yl-pyrrolo[2,1-f][1,2,4]triazin-2-yl)-amine]"
100 to 1000 nM,< 100 nM,–,–,"CCN1CCOC(c2ccc(Nc3ncc4ccc(-c5cnn(C)c5)n4n3)cc2)C1 (stereo not drawn) [Example 1189, [4-(4-Ethyl-morpholin-2-yl)-phenyl]-[7-(1-methyl-1H-pyrazol-4-yl)-pyrrolo[2,1-f][1,2,4]triazin-2-yl]-amine]"
–,–,1000 to 10000 nM,< 100 nM,"COc1ccc(-c2ccc3cnc(Nc4ccc(F)c(N5CCOCC5)c4)nn23)cn1 [Example 392, (4-Fluoro-3-morpholin-4-yl-phenyl)-[7-(6-methoxy-pyridin-3-yl)-pyrrolo[2,1-f][1,2,4]triazin-2-yl]-amine]"
1000 to 10000 nM,< 100 nM,–,–,"CS(=O)(=O)Nc1cccc(-c2ccc3cnc(Nc4cnn(CCN5CCOCC5)c4)nn23)c1 [Example 1195, N-(3-{2-[1-(2-Morpholin-4-yl-ethyl)-1H-pyrazol-4-ylamino]-pyrrolo[2,1-f][1,2,4]triazin-7-yl}-phenyl)-methanesulfonamide]"
–,–,100 to 1000 nM,< 100 nM,"CNS(=O)(=O)c1cccc(-c2ccc3cnc(Nc4ccc(N5CCN(C)CC5)cc4)nn23)c1 [Example 366, N-Methyl-3-{2-[4-(4-methyl-piperazin-1-yl)-phenylamino]-pyrrolo[2,1-f][1,2,4]triazin-7-yl}-benzenesulfonamide]"
